What was measured:
Test in all cases: relative viability (nuclei count vs DMSO), 5 days (fraction); higher = more cells survive
LXF-289 = tested on: LXF-289
Summary of the method: (§1)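 After 5 days of treatment, lung cancer cells in 1536-well plates were fixed and stained in a single step (final 0.05% Triton X-100, 1% formaldehyde, 1 ug/ml Hoechst) and their nuclei counted on 4× images. Treatment had been applied by pin tool the day after seeding as one drug alone or as a fixed anchor-drug dose with five library-drug doses (not always all listed) in √10 steps. Relative viability is the nuclei count of treated wells divided by that of vehicle wells, and values are medians of duplicate plates.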

NCI-H358 = tested on: NCI-H358
Summary of the method: as §1

NCI-H1651 = tested on: NCI-H1651
Summary of the method: as §1

EMC-BAC-2 = tested on: EMC-BAC-2
Summary of the method: as §1

NCI-H2126 = tested on: NCI-H2126
Summary of the method: as §1

NCI-H1793 = tested on: NCI-H1793
Summary of the method: as §1

EKVX = tested on: EKVX
Summary of the method: as §1

UMC-11 = tested on: UMC-11
Summary of the method: as §1

A-427 = tested on: A-427
Summary of the method: as §1

NCI-H3122 = tested on: NCI-H3122
Summary of the method: as §1

NCI-H2023 = tested on: NCI-H2023
Summary of the method: as §1

NCI-H322M = tested on: NCI-H322M
Summary of the method: as §1

SW 1573 = tested on: SW 1573
Summary of the method: as §1

EPLC-272H = tested on: EPLC-272H
Summary of the method: as §1

BEN = tested on: BEN
Summary of the method: as §1

HCC-44 = tested on: HCC-44
Summary of the method: as §1

NCI-H596 = tested on: NCI-H596
Summary of the method: as §1

LCLC-103H = tested on: LCLC-103H
Summary of the method: as §1

NCI-H2087 = tested on: NCI-H2087
Summary of the method: as §1

NCI-H1650 = tested on: NCI-H1650
Summary of the method: as §1

SK-LU-1 = tested on: SK-LU-1
Summary of the method: as §1

COR-L23 = tested on: COR-L23
Summary of the method: as §1

201T = tested on: 201T
Summary of the method: as §1

For `C=C1C(=O)O[C@@H](CCCCCCCC)[C@@H]1C(=O)O` [C-75] + Nc1nc2[nH]cc(CCc3ccc(C(=O)N[C@@H](CCC(=O)O)C(=O)O)cc3)c2c(=O)[nH]1 [Pemetrexed] (partner 0.2 µM), the relative viability (LXF-289; first compound 0.08 µM) was 0.834, the relative viability (LXF-289; first compound 0.253 µM) was 0.906 and the relative viability (LXF-289; first compound 0.8 µM) was 0.858. The relative viability (LXF-289; first compound 2.53 µM) was 0.886, the relative viability (LXF-289; first compound 8 µM) was 0.904 and the relative viability (NCI-H358; first compound 0.08 µM) was 0.169. For the same molecule, the relative viability (NCI-H358; first compound 0.253 µM) was 0.185, the relative viability (NCI-H358; first compound 0.8 µM) was 0.168 and the relative viability (NCI-H358; first compound 8 µM) was 0.189. It also gave a relative viability (NCI-H1651; first compound 0.08 µM) of 0.568, a relative viability (NCI-H1651; first compound 0.253 µM) of 0.671 and a relative viability (NCI-H1651; first compound 0.8 µM) of 0.541. For the same molecule, the relative viability (NCI-H1651; first compound 2.53 µM) was 0.53, the relative viability (NCI-H1651; first compound 8 µM) was 0.606 and the relative viability (EMC-BAC-2; first compound 0.08 µM) was 0.438. For the same molecule, the relative viability (EMC-BAC-2; first compound 0.253 µM) was 0.432, the relative viability (EMC-BAC-2; first compound 0.8 µM) was 0.469 and the relative viability (EMC-BAC-2; first compound 2.53 µM) was 0.328. For the same molecule, the relative viability (EMC-BAC-2; first compound 8 µM) was 0.426, the relative viability (NCI-H2126; first compound 0.08 µM) was 0.727 and the relative viability (NCI-H2126; first compound 0.253 µM) was 0.681. The relative viability (NCI-H2126; first compound 0.8 µM) was 0.725, the relative viability (NCI-H2126; first compound 2.53 µM) was 0.622 and the relative viability (NCI-H2126; first compound 8 µM) was 0.673. It also gave a relative viability (NCI-H1793; first compound 0.08 µM) of 0.702, a relative viability (NCI-H1793; first compound 0.253 µM) of 0.954 and a relative viability (NCI-H1793; first compound 2.53 µM) of 0.59. It also gave a relative viability (NCI-H1793; first compound 8 µM) of 0.958, a relative viability (EKVX; first compound 0.08 µM) of 0.45 and a relative viability (EKVX; first compound 0.253 µM) of 0.491. For the same molecule, the relative viability (EKVX; first compound 0.8 µM) was 0.366, the relative viability (EKVX; first compound 8 µM) was 0.358 and the relative viability (UMC-11; first compound 0.08 µM) was 0.77. The relative viability (UMC-11; first compound 0.253 µM) was 0.883, the relative viability (UMC-11; first compound 0.8 µM) was 0.725 and the relative viability (UMC-11; first compound 2.53 µM) was 0.625. For the same molecule, the relative viability (UMC-11; first compound 8 µM) was 0.576, the relative viability (A-427; first compound 0.08 µM) was 0.949 and the relative viability (A-427; first compound 0.253 µM) was 0.774. It also gave a relative viability (A-427; first compound 0.8 µM) of 0.813, a relative viability (A-427; first compound 2.53 µM) of 0.71 and a relative viability (A-427; first compound 8 µM) of 0.871. The relative viability (NCI-H3122; first compound 0.08 µM) was 0.2, the relative viability (NCI-H3122; first compound 0.253 µM) was 0.208 and the relative viability (NCI-H3122; first compound 0.8 µM) was 0.181. The relative viability (NCI-H3122; first compound 2.53 µM) was 0.189, the relative viability (NCI-H3122; first compound 8 µM) was 0.185 and the relative viability (NCI-H2023; first compound 0.08 µM) was 0.246. The relative viability (NCI-H2023; first compound 0.253 µM) was 0.265, the relative viability (NCI-H2023; first compound 0.8 µM) was 0.242 and the relative viability (NCI-H2023; first compound 2.53 µM) was 0.171. It also gave a relative viability (NCI-H2023; first compound 8 µM) of 0.21, a relative viability (NCI-H322M; first compound 0.08 µM) of 0.633 and a relative viability (NCI-H322M; first compound 0.253 µM) of 0.6. It also gave a relative viability (NCI-H322M; first compound 0.8 µM) of 0.575, a relative viability (NCI-H322M; first compound 8 µM) of 0.625 and a relative viability (SW 1573; first compound 0.08 µM) of 0.947. It also gave a relative viability (SW 1573; first compound 0.253 µM) of 0.874, a relative viability (SW 1573; first compound 0.8 µM) of 0.728 and a relative viability (SW 1573; first compound 2.53 µM) of 0.684. For the same molecule, the relative viability (SW 1573; first compound 8 µM) was 0.706, the relative viability (EPLC-272H; first compound 0.08 µM) was 0.313 and the relative viability (EPLC-272H; first compound 0.253 µM) was 0.267. It also gave a relative viability (EPLC-272H; first compound 0.8 µM) of 0.329, a relative viability (EPLC-272H; first compound 2.53 µM) of 0.202 and a relative viability (EPLC-272H; first compound 8 µM) of 0.24. For the same molecule, the relative viability (BEN; first compound 0.08 µM) was 0.753, the relative viability (BEN; first compound 0.253 µM) was 0.816 and the relative viability (BEN; first compound 0.8 µM) was 0.688. The relative viability (BEN; first compound 2.53 µM) was 0.842, the relative viability (BEN; first compound 8 µM) was 0.766 and the relative viability (HCC-44; first compound 0.08 µM) was 0.58. For the same molecule, the relative viability (HCC-44; first compound 0.253 µM) was 0.698, the relative viability (HCC-44; first compound 0.8 µM) was 0.683 and the relative viability (HCC-44; first compound 2.53 µM) was 0.572. The relative viability (HCC-44; first compound 8 µM) was 0.634, the relative viability (NCI-H596; first compound 0.08 µM) was 0.503 and the relative viability (NCI-H596; first compound 0.253 µM) was 0.432. The relative viability (NCI-H596; first compound 0.8 µM) was 0.461, the relative viability (NCI-H596; first compound 2.53 µM) was 0.47 and the relative viability (NCI-H596; first compound 8 µM) was 0.481. The relative viability (LCLC-103H; first compound 0.08 µM) was 0.464, the relative viability (LCLC-103H; first compound 0.253 µM) was 0.428 and the relative viability (LCLC-103H; first compound 0.8 µM) was 0.458. It also gave a relative viability (LCLC-103H; first compound 2.53 µM) of 0.326, a relative viability (LCLC-103H; first compound 8 µM) of 0.433 and a relative viability (NCI-H2087; first compound 0.08 µM) of 0.695. It also gave a relative viability (NCI-H2087; first compound 0.253 µM) of 0.686, a relative viability (NCI-H2087; first compound 0.8 µM) of 0.616 and a relative viability (NCI-H2087; first compound 2.53 µM) of 0.647. It also gave a relative viability (NCI-H2087; first compound 8 µM) of 0.574, a relative viability (NCI-H1650; first compound 0.08 µM) of 0.365 and a relative viability (NCI-H1650; first compound 0.253 µM) of 0.401. For the same molecule, the relative viability (NCI-H1650; first compound 0.8 µM) was 0.384, the relative viability (NCI-H1650; first compound 8 µM) was 0.372 and the relative viability (SK-LU-1; first compound 0.08 µM) was 0.984. It also gave a relative viability (SK-LU-1; first compound 0.253 µM) of 0.87, a relative viability (SK-LU-1; first compound 0.8 µM) of 0.845 and a relative viability (SK-LU-1; first compound 2.53 µM) of 0.866. The relative viability (SK-LU-1; first compound 8 µM) was 0.746, the relative viability (COR-L23; first compound 0.08 µM) was 0.197 and the relative viability (COR-L23; first compound 0.253 µM) was 0.197. The relative viability (COR-L23; first compound 0.8 µM) was 0.2, the relative viability (COR-L23; first compound 2.53 µM) was 0.2 and the relative viability (COR-L23; first compound 8 µM) was 0.198. It also gave a relative viability (201T; first compound 0.08 µM) of 0.337, a relative viability (201T; first compound 0.253 µM) of 0.323 and a relative viability (201T; first compound 0.8 µM) of 0.296. For the same molecule, the relative viability (201T; first compound 2.53 µM) was 0.311 and the relative viability (201T; first compound 8 µM) was 0.308.

From the supplement of paper PMC10307832
